The test system of experiment [1] is maximal electroshock extensor seizure. Briefly: Mouse maximal electroshock test (MES) anticonvulsant model. Conditions: oral, @ 100 mpk. It is filed as in vivo. The protocol: Procedure for Testing in Mouse Anticonvulsant Model
The activity of the present compounds as anticonvulsant agents was determined using a standard mouse “maximal electroshock test” (MES). In this test, activity was indicated by a block of the […] extensor seizure, as described by Swinyard, et al. (J. Pharmacol. Exptl. Therap., 1952, 106, 319). A more recent description of current anticonvulsant drug screening is given in Swinyard, et al., in Epilepsia, 1978, 19, 409.
The anticonvulsant activity of the instant compounds is shown in Table 5 and was evaluated according to the Swinyard (1952) method. The abbreviations used in the table have the following meanings: mpk refers to the dose orally administered in “mg per Kg;” and, ED50 refers to the “50% Effective Dose” orally administered in mpk. The values marked by an * represent the number of mice protected/number of mice tested; therefore, a value of 3/3 represents that the number of mice protected matched the number of mice tested at the indicated dose.
A general note: In the maximal electroshock model the usual endpoint is tonic extension of the hind limbs.

In experiment [2] the test system is voltage-gated sodium channels. Briefly: Fluorometric membrane potential assay in SK-N-SH cells (veratridine stimulus, FLIPR). Conditions: 10 μM compound, 5 μM veratridine. The format is cell-based. The protocol: Screening Assay for Voltage-Gated Sodium Channel Antagonists Fluorometric Membrane Potential Assay
SK-N-SH neuroblastoma cells were maintained in a propagation medium containing modified Eagle's medium and 10% (v/v) fetal bovine serum and were incubated at 37° C. in a 5% CO2 atmosphere. Only cells with fewer than 20 passages were used in each assay. All drugs were prepared in DMSO, and the final concentration of solvent was less than 0.1% (v/v). Veratridine, a toxin that selectively promotes persistent activation of voltage-gated sodium channels, served as the stimulus. 24 hr prior to testing, 1×10^5 cells/well were plated into 96-well plates specifically designed for use in a fluorescent imaging plate reader (FLIPR) (Molecular Devices, Sunnyvale, Calif.)
Prior to screening, monolayers of cells were loaded with 100 μL/well of a proprietary voltage-sensitive dye (Molecular Devices, Sunnyvale, Calif.) for 30 min at 37° C. After this incubation period, the cells were stimulated with 5 μM veratridine in the presence or absence of investigational compounds (prepared at a final concentration of 10 μM in DMSO). A sample containing 5 μM veratridine and 10 μM tetrodotoxin accounted for nonspecific activity. The fluorescence was monitored by the FLIPR (Molecular Devices) from 10 sec prior to drug addition (50 μL) to 170 sec after drug addition at 25° C. During sodium channel activation, the cells depolarize and the dye associates with cell membranes, resulting in increased fluorescence.

Experiment [3] relates to mechanical allodynia after L5 spinal nerve ligation. Briefly: Chung Model (spinal nerve ligation) antiallodynic effect. The format is in vivo. Conditions: po; rat, orally administered. From the text: Procedure for Testing Antiallodynic Effect
The procedure used to detect the antiallodynic effect of a compound of the present invention for which there is a good correlation with human efficacy for the treatment of pain is the procedure for the measurement of allodynia found in the Chung Model (Kim S. H. and Chung J. M., An Experimental Model for Peripheral Neuropathy Produced by Segmental Spinal Nerve Ligation in the Rat, Pain, 1992, 50, 355-363). The antiallodynic effect of the composition of the present invention in the Chung Model is expressed in % MPE (Maximum Possible Effect).
Male Sprague-Dawley rats, weighing approximately 200 g each were anesthetized with isoflurane. The spinal nerve at the level of L5 was exposed through an incision just left of the dorsal midline and tightly ligated with 6-0 silk. At various times after surgery, animals were tested for mechanical allodynia with von Frey hairs (monofilaments which are calibrated to bend under a certain amount of pressure, ranging from 0.41 to 15.1 g). In order to calculate a paw withdrawal threshold (PWT), tactile allodynia was measured by recording the pressure at which the affected paw was withdrawn from graded stimuli according to the procedure of S. R. Chaplan, J. W. Pogrel, T. L. Yaksh, Role of Voltage-Dependent Calcium Channel Subtypes in Experimental Tactile Allodynia, J. Pharmacol. Exp. Ther., 1994, 269, 1117-1123. Normal rats can withstand at least 15 g of pressure without responding. Operated rats, however, can respond to as little as 0.25 g of pressure. The surgery was deemed successful if the animal responded with a PWT of less than 4 g of pressure applied to the affected paw. […] The PWT was used to calculate the % maximal possible effect (% MPE) according to the formula: %MPE=100×[(PWT−CT)/(CO−CT)]; wherein PWT is defined as Paw Withdrawal Threshold, CT is Control Threshold, and CO is Cut Off (defined as 15 g).
The sham operation consisted of a similar surgery; the spinal nerve was visualized without being ligated.
Compounds selected from Formula (I) and Formula (II) were tested for activity in treating or modulating neuropathic pain by being dissolved or suspended in either water or hydroxypropyl methylcellulose, respectively. Postoperative animals between 14 to 42 days were fasted overnight prior to dosing. Animals were orally dosed and dosage volumes were calculated on a 4 mL/kg basis.

Experiment [4] relates to voltage-gated sodium channels. The experiment in a line: [14C]guanidinium flux assay in SK-N-SH cells (veratridine stimulus). The format is cell-based. The settings on record: 10 μM compound, 100 μM veratridine. The method, then:
Screening Assay for Voltage-Gated Sodium Channel Antagonists [^14C] Guanidinium Flux Assay
SK-N-SH neuroblastoma cells were maintained in a propagation medium containing modified Eagle's medium and 10% (v/v) fetal bovine serum and were incubated at 37° C. in a 5% CO2 atmosphere. Only cells with fewer than 20 passages were used in each assay. All drugs were prepared in DMSO, and the final concentration of solvent was less than 0.1% (v/v). Veratridine, a toxin that selectively promotes persistent activation of voltage-gated sodium channels, served as the stimulus.
SK-N-SH cells were plated at 1×10^5 cells/well in 96-well Cytostar-T microscintillating plates in propagation medium and experiments were performed 6-7 days after plating. Prior to assay, the SK-N-SH cells were washed twice with assay buffer containing 50 mM HEPES (pH 7.45), 5.4 mM potassium chloride, 0.8 mM magnesium chloride, 130 mM choline chloride, 5.5 mM glucose and 0.1 mg/mL bovine serum albumin. Next, the plates were allowed to equilibrate for 10 min at 37° C. in assay buffer. After this incubation period, the cells were stimulated with 100 μM veratridine in the presence or absence of investigational compounds prepared in a 96-well plate (prepared at a final concentration of 10 μM in DMSO). The 96-well dosing plate was prepared by mixing 25 μL of a drug/assay buffer solution per well with 25 μL of 0.7 μCi/mL [^14C]guanidine hydrochloride in assay buffer. 50 μL aliquots from the dosing plate were then added to the cells. One sample containing 100 μM veratridine and 10 μM tetrodotoxin accounted for nonspecific activity. The plates were incubated for 1 hr at room temperature and the radioactivity was counted in a 1450 Microbeta scintillation counter.

Marks after values point to notes of the source that are not given here.

Usually ED50 stands for the dose at which the effect has come halfway, by size or by number of responders. Low values mean greater potency, high ones weaker potency.

Consider `Cl.Cn1cc(C(=O)c2ccc(F)cc2)cc1C(=O)c1cccnc1` [Cpd 7, (4-Fluorophenyl)-[1-methyl-5-(pyridine-3-carbonyl)-1H-pyrrol-3-yl]methanone Hydrochloride], for which the “MES Response, number of mice protected/number of mice tested” value in experiment [1] was 2/3* @ 100 mpk. Besides, the “% FI at 10 μM (% fluorescence inhibition)” value in experiment [2] was determined as 45%. Also, in experiment [3], it took a dose of 22 mg/kg to reach the 50% effect level (ED50). Also, the “% GFI at 10 μM (% guanidinium flux inhibition)” value in experiment [4] was determined as 57%.

The values are drawn from patent US6897319B2, “Useful aroyl pyrrole heteroaryl methanones and methanols” (Ortho-McNeil Pharmaceutical, Inc., priority 2001, dated 2005).
